According to patent publication US7605168B2 (Plexxikon, Inc., priority 2004, dated 2009):

What was measured:
Assay type in all cases: biochemical
[1] = molecular target: T1, PDE4D5: full-length human PDE4D5 isozyme (Homo sapiens, UniProt Q08499); experiment: PDE4 IC50 determination by Scintillation Proximity Assay (SPA), full-length PDE4D5; settings: cell lysate, [3H]cAMP SPA
T1 construct: made in house; host or cells: baculovirus infected insect cells (pFastBacHT)
Description: (§1) The enzyme was not purified from the cell lysates, so enzyme concentrations were not determined. Enzyme was stored in 50% glycerol at −20°.
(§2) IC50s were determined by Scintillation Proximity Assay (SPA). The principle of the assay is based on the fact that cAMP, the PDE4 substrate, binds weakly to Yittrium Silicate SPA beads, whereas AMP, the product of PDE4 hydrolysis binds strongly. Thus, the extent of PDE4 hydrolysis of a sample of [^3H]cAMP can be measured because only the [^3H]AMP produced by PDE4 hydrolysis will bind to the SPA beads and produce a scintillation signal.
(§3) In addition to the compound dilutions, each assay plate contained control wells with 1 μl of DMSO (to define 0% enzyme inhibition) or 1 μl of 200 μM roflumilast (to define 100% enzyme inhibition). Using a Beckman FX robot, 10 μl of [^3H] cAMP (Amersham TRK559) at […] in assay buffer (50 mM Tris, pH 7.5; 8.3 mM MgCl; 1.7 mM EGTA; 0.01% BSA) was transferred to each assay well. Next, 10 μl of PDE4 enzyme in assay buffer was added and the plates were shaken for 30 s. at 1000 rpm to start the cAMP hydrolysis reaction. The concentrations of enzyme used were: PDE4B, 80 ng/ml; PDE4D, 4 ng/ml; PDE4B2, 2.5 μl of 50% glycerol stock/ml; PDE4D5 0.083 μl of 50% glycerol stock/ml. Assay plates were covered and incubated for 30 min. at 30° C. Reactions were stopped by robotic addition of 10 μl of 5 mg/ml SPA beads (Amersham RPNQ0013) in 18 mM ZnSO4. The assay plates were covered with clear plastic film, centrifuged for 1 min. at 1000 RPM to settle the SPA beads, and counted using a Wallac TriLux scintillation counter. IC50's were calculated from the raw assay data by non-linear regression curve fitting using the Assay Explorer software package from MDL.

[2] = molecular target: T2, PDE4B: catalytic domain of human PDE4B from S152-S528 (Homo sapiens, UniProt Q07343); experiment: PDE4 IC50 determination by Scintillation Proximity Assay (SPA), PDE4B catalytic domain; settings: [3H]cAMP SPA, 30 min at 30° C.
T2 construct: The catalytic domain of human PDE4B from S152-S528; His6 (N, cleaved yes); thrombin cleavage site (N, cleaved yes); made in house; host or cells: E. coli BL21 (DE3) RIL
T2 sequence (Q07343 324-700): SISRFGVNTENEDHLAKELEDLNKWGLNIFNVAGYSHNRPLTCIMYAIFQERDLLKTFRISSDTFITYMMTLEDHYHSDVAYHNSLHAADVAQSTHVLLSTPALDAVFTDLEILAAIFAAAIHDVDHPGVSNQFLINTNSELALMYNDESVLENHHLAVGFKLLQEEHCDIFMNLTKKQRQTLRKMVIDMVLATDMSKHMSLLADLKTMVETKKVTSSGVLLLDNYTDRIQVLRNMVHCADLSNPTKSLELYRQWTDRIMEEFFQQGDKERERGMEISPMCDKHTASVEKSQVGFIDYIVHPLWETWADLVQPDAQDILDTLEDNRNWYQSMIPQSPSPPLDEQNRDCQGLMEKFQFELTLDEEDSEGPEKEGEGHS
Description: as §2
Enzyme was stored in 50% glycerol at −20°.
as §3

[3] = molecular target: T3, PDE4B2: full-length human PDE4B2 isozyme (Homo sapiens, UniProt Q07343); experiment: PDE4 IC50 determination by Scintillation Proximity Assay (SPA), full-length PDE4B2; settings: cell lysate, [3H]cAMP SPA
T3 construct: made in house; host or cells: baculovirus infected insect cells (pFastBacHT)
T3 sequence (Q07343 with tags, fused parts or gaps isoform Q07343-2): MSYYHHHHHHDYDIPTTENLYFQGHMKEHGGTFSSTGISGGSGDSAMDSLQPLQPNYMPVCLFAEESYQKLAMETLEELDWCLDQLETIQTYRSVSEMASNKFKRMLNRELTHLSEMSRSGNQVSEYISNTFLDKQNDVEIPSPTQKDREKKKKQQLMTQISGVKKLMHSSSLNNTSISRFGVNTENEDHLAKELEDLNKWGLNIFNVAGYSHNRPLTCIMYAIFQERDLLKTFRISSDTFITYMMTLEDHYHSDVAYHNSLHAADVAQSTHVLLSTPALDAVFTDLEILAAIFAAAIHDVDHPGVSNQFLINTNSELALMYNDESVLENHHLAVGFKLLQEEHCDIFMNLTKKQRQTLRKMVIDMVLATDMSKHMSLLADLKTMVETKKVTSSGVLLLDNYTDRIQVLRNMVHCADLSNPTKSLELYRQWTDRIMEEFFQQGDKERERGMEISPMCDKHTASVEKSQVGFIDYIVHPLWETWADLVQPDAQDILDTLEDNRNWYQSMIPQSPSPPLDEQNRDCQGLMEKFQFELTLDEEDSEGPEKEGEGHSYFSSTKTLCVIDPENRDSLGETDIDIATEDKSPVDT
Description: as §1, §2, §3

T1 sequence (Q08499 with tags, fused parts or gaps isoform Q08499-6): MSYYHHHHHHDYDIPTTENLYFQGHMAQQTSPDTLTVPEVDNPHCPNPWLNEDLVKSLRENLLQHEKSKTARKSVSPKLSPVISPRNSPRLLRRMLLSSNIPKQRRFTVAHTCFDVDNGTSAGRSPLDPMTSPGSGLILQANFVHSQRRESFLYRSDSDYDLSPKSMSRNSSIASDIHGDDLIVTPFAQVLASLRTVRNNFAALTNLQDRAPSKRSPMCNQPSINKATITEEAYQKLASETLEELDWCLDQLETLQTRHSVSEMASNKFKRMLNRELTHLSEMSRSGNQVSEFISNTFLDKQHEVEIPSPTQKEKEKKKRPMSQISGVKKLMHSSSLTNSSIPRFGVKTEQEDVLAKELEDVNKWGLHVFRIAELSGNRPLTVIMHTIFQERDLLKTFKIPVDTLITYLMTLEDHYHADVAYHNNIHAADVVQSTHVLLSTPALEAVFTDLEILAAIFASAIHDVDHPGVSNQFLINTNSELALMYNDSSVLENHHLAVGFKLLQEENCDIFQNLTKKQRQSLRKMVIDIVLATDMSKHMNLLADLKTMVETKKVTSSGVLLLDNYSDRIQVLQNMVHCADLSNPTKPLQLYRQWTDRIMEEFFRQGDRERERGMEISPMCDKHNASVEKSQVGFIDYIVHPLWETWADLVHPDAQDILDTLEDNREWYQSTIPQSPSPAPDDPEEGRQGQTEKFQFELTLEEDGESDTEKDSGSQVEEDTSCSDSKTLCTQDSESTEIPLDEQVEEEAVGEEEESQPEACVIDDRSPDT

COc1ccc(-c2cn(S(=O)(=O)c3ccc(-c4ccccc4)cc3)c3ncccc23)cc1OC [Compound 10, 1-(Biphenyl-4-sulfonyl)-3-(3,4-dimethoxy-phenyl)-1H-pyrrolo[2,3-b]pyridine]
IC50 [1]: < 10 µM | IC50 [2]: < 10 µM | IC50 [3]: < 10 µM

COc1ccc(-c2cn(S(=O)(=O)c3cccc4cc(C)cnc34)c3ncccc23)cc1OC [Compound 13, 8-[3-(3,4-Dimethoxy-phenyl)-pyrrolo[2,3-b]pyridine-1-sulfonyl]-3-methyl-quinoline]
IC50 [1]: < 10 µM | IC50 [2]: < 10 µM | IC50 [3]: < 10 µM

COc1ccc(-c2cn(S(=O)(=O)c3ccc(Oc4ccccc4)cc3)c3ncccc23)cc1OC [Compound 15, 3-(3,4-Dimethoxy-phenyl)-1-(4-phenoxy-benzenesulfonyl)-1H-pyrrolo[2,3-b]pyridine]
IC50 [1]: < 10 µM | IC50 [2]: < 10 µM | IC50 [3]: < 10 µM

COc1ccc(-c2cn(S(=O)(=O)c3ccccc3)c3ccccc23)cc1OC [Compound 19, 1-benzenesulfonyl-3-(3,4-dimethoxy-phenyl)-1H-indole]
IC50 [1]: < 10 µM | IC50 [2]: < 10 µM | IC50 [3]: < 10 µM

CCOC(=O)c1ccc(NC(=O)n2cc(-c3ccc(OC)c(OC)c3)c3cccnc32)cc1 [Compound 33, 4-[3-(3,4-Dimethoxy-phenyl)-pyrrolo[2,3-b]pyridine-1-carbonyl]-amino-benzoic acid ethyl ester]
IC50 [1]: > 10 µM | IC50 [2]: < 10 µM | IC50 [3]: < 10 µM

COc1ccc(-c2cn(C(=O)Nc3cccc(F)c3)c3ncccc23)cc1OC [Compound 35, 3-(3,4-Dimethoxy-phenyl)-pyrrolo[2,3-b]pyridine-1-carboxylic acid(3-fluoro-phenyl)-amide]
IC50 [1]: > 10 µM | IC50 [2]: > 10 µM | IC50 [3]: > 10 µM

COc1ccc(NC(=O)n2cc(-c3ccc(OC)c(OC)c3)c3cccnc32)cc1 [Compound 39, 3-(3,4-Dimethoxy-phenyl)-pyrrolo[2,3-b]pyridine-1-carboxylic acid (4-methoxy-phenyl)-amide]
IC50 [1]: > 10 µM | IC50 [2]: < 10 µM | IC50 [3]: < 10 µM

COc1ccc(-c2cn(C(=O)Nc3ccc(C(C)=O)cc3)c3ncccc23)cc1OC [Compound 40, 3-(3,4-Dimethoxy-phenyl)-pyrrolo[2,3-b]pyridine-1-carboxylic acid (4-acetyl-phenyl)-amide]
IC50 [1]: < 10 µM | IC50 [2]: < 10 µM | IC50 [3]: < 10 µM

COc1ncc(-c2cn(S(=O)(=O)Cc3ccccc3)c3ncccc23)cn1 [Compound 45, 3-(2-Methoxy-pyrimidin-5-yl)-1-phenylmethanesulfonyl-1H-pyrrolo[2,3-b]pyridine]
IC50 [1]: < 10 µM | IC50 [2]: < 10 µM | IC50 [3]: < 10 µM

CSc1nccc(-c2cn(S(=O)(=O)c3cccc4cccnc34)c3ncccc23)n1 [Compound 46, 8-[3-(2-Methylsulfanyl-pyrimidin-4-yl)-pyrrolo[2,3-b]pyridine-1-sulfonyl]-quinoline]
IC50 [1]: < 10 µM | IC50 [2]: < 10 µM | IC50 [3]: < 10 µM

COc1ccc(CC(=O)n2cc(-c3ccc(OC)c(OC)c3)c3cccnc32)cc1 [Compound 60, 1-[3-(3,4-Dimethoxy-phenyl)-pyrrolo[2,3-b]pyridin-1-yl]-2-(4-methoxy-phenyl)-ethanone-amide]
IC50 [1]: < 10 µM | IC50 [2]: < 10 µM | IC50 [3]: < 10 µM

COc1ccc(-c2c[nH]c3ncccc23)cc1OCc1ccccc1 [Compound 89, 3-(3-Benzyloxy-4-methoxy-phenyl)-1H-pyrrolo[2,3-b]pyridine]
IC50 [1]: < 10 µM | IC50 [3]: < 10 µM

c1cnc2[nH]cc(-c3ccc4c(c3)OCO4)c2c1 [Compound 90, 3-Benzo[1,3]dioxol-5-yl-1H-pyrrolo[2,3-b]pyridine]
IC50 [1]: > 10 µM | IC50 [2]: > 10 µM | IC50 [3]: > 10 µM

COc1ccc2c(c1)c(-c1ccc(OC)c(OC)c1)cn2S(=O)(=O)c1cccc2cc(C)cnc12 [Compound 94, 8-[3-(3,4-Dimethoxy-phenyl)-5-methoxy-indole-1-sulfonyl]-3-methyl-quinoline]
IC50 [1]: < 10 µM | IC50 [3]: < 10 µM

COc1ccc(-c2cn(C(=O)Nc3ccc(F)c([N+](=O)[O-])c3)c3ncccc23)cc1OC1CCCC1 [Compound 98, 3-(3-Cyclopentyloxy-4-methoxy-phenyl)-pyrrolo[2,3-b]pyridine-1-carboxylic acid (3-nitro-4-fluoro-phenyl)-amide]
IC50 [1]: < 10 µM | IC50 [3]: < 10 µM

COc1ccc(-c2cn(S(=O)(=O)c3ccccc3)c3ccccc23)cc1OC1CCCC1 [Compound 99, 1-Benzenesulfonyl-3-(3-cyclopentyloxy-4-methoxy-phenyl)-1H-indole]
IC50 [1]: < 10 µM | IC50 [2]: < 10 µM | IC50 [3]: < 10 µM

COc1ccc(-c2cn(C(=O)c3ccc(Cl)nc3)c3ncccc23)cc1OC [Compound 107, (6-Chloro-pyridin-3-yl)-[3-(3,4-dimethoxy-phenyl)-pyrrolo[2,3-b]pyridin-1-yl]-methanone]
IC50 [1]: < 10 µM | IC50 [3]: < 10 µM

COc1ccc(-c2cn(C(=O)[C@@H]3C[C@H]3c3ccccc3)c3ncccc23)cc1OC [Compound 108, [3-(3,4-Dimethoxy-phenyl)-pyrrolo[2,3-b]pyridin-1-yl]-((1R,2R)-2-phenyl-trans-cyclopropyl)-methanone]
IC50 [1]: < 10 µM | IC50 [3]: < 10 µM

CCOc1ccc(C(=O)n2cc(-c3ccc(OC)c(OC)c3)c3cccnc32)c(OCC)c1 [Compound 111, (2,4-Diethoxy-phenyl)-[3-(3,4-dimethoxy-phenyl)-pyrrolo[2,3-b]pyridin-1-yl]-methanone]
IC50 [1]: < 10 µM | IC50 [2]: < 10 µM | IC50 [3]: < 10 µM

COc1ccc(-c2cn(C(=O)c3ccccc3Oc3ccccc3)c3ncccc23)cc1OC [Compound 118, [3-(3,4-Dimethoxy-phenyl)-pyrrolo[2,3-b]pyridin-1-yl]-(2-phenoxy-phenyl)-methanone]
IC50 [1]: < 10 µM | IC50 [3]: < 10 µM

CCOc1ccc2ccccc2c1C(=O)n1cc(-c2cccc(C(=O)OC)c2)c2cccnc21 [Compound 120, 3-[1-(2-Ethoxy-naphthalene-1-carbonyl)-1H-pyrrolo[2,3-b]pyridin-3-yl]-benzoic acid methyl ester]
IC50 [1]: < 10 µM | IC50 [3]: < 10 µM

CCOc1ccc2ccccc2c1C(=O)n1cc(-c2ccc(O)c(OC)c2)c2cccnc21 [Compound 123, (2-Ethoxy-naphthalen-1-yl)-[3-(4-hydroxy-3-methoxy-phenyl)-pyrrolo[2,3-b]pyridin-1-yl]-methanone]
IC50 [1]: < 10 µM | IC50 [3]: < 10 µM

COc1cc(-c2cn(S(=O)(=O)c3ccccc3)c3ncccc23)ccc1OCc1cc(-c2ccccc2)no1 [Compound 125, 1-Benzenesulfonyl-3-[3-methoxy-4-(3-phenyl-isoxazol-5-ylmethoxy)-phenyl]-1H-pyrrolo[2,3-b]pyridine]
IC50 [1]: < 10 µM | IC50 [3]: < 10 µM

CCOC(=O)c1ccc(C#Cc2cn(S(=O)(=O)c3ccccc3)c3ncc(-c4ccc(OC)c(OC)c4)cc23)cc1 [Compound 135, 4-[1-Benzenesulfonyl-5-(3,4-dimethoxy-phenyl)-1H-pyrrolo[2,3-b]pyridin-3-ylethynyl]-benzoic acid ethyl ester]
IC50 [3]: < 10 µM

COc1ccc(-c2cnc3c(c2)c(C#Cc2ccccc2)cn3S(=O)(=O)c2ccccc2)cc1OC [Compound 136, 1-Benzenesulfonyl-5-(3,4-dimethoxy-phenyl)-3-phenylethynyl-1H-pyrrolo[2,3-b]pyridine]
IC50 [1]: < 10 µM | IC50 [3]: < 10 µM

COC(=O)c1cccc(C#Cc2cn(S(=O)(=O)c3ccccc3)c3ncc(-c4ccc(OC)c(OC)c4)cc23)c1 [Compound 137, 3-[1-Benzenesulfonyl-5-(3,4-dimethoxy-phenyl)-1H-pyrrolo[2,3-b]pyridin-3-ylethynyl]-benzoic acid methyl ester]
IC50 [1]: < 10 µM | IC50 [3]: < 10 µM

COc1ccc(-c2cn(S(=O)(=O)c3ccccc3)c3ncccc23)cc1O [Compound 141, 5-(1-Benzenesulfonyl-1H-pyrrolo[2,3-b]pyridin-3-yl)-2-methoxy-phenol]
IC50 [1]: < 10 µM | IC50 [3]: < 10 µM

Cc1[nH]c2ncccc2c1-c1ccc2c(c1)OCO2 [Compound 142, 3-Benzo[1,3]dioxol-5-yl-2-methyl-1H-pyrrolo[2,3-b]pyridine]
IC50 [1]: > 10 µM | IC50 [2]: < 10 µM | IC50 [3]: > 10 µM
